# Experimental data from ChEMBL document CHEMBL1201862, “PubChem BioAssay data set” (2004).
#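 All cell lines were grown in 96-well plates and treated with compound for 48 hours. GI50 marks 50% less growth.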 Active and inactive are the calls of the source. Cut-off read from the data, not from the text of the source: active = GI50 up to about 1.1 µM and inactive = higher.
# Tests used:
# Test in all cases: NCI tumour cell line growth inhibition, 48 h
# [1] = tested on: OVCAR-8
# [2] = tested on: TK-10
# [3] = tested on: LOX IMVI
# [4] = tested on: IGROV-1
# [5] = tested on: U-251
# [6] = tested on: COLO 205
# [7] = tested on: OVCAR-3
# [8] = tested on: EKVX
# [9] = tested on: HCT-116
# [10] = tested on: OVCAR-4
# [11] = tested on: KM12
# [12] = tested on: SW-620
# [13] = tested on: SNB-75
Compound,GI50 [1],GI50 [2],GI50 [3],GI50 [4],GI50 [5],GI50 [6],GI50 [7],GI50 [8],GI50 [9],GI50 [10],GI50 [11],GI50 [12],GI50 [13]
N#C/C(=C\c1ccc(CP(=O)(O)O)cc1)C(N)=O,> 100 µM (inactive),> 100 µM (inactive),> 100 µM (inactive),> 100 µM (inactive),> 100 µM (inactive),> 100 µM (inactive),> 100 µM (inactive),> 100 µM (inactive),> 100 µM (inactive),> 100 µM (inactive),> 100 µM (inactive),> 100 µM (inactive),–
O=C1C(=O)N(c2ccc(Cl)cc2Cl)C(=O)C(=O)C1c1nc2ccccc2o1,> 100 µM (inactive),> 100 µM (inactive),–,> 100 µM (inactive),> 100 µM (inactive),> 100 µM (inactive),> 100 µM (inactive),> 100 µM (inactive),> 100 µM (inactive),> 100 µM (inactive),> 100 µM (inactive),> 100 µM (inactive),> 100 µM (inactive)
CCOC(=O)c1ccc(/N=N\c2ccc(N(CCC#N)CCC#N)cc2C)cc1,> 100 µM (inactive),> 100 µM (inactive),> 100 µM (inactive),> 100 µM (inactive),> 100 µM (inactive),> 100 µM (inactive),> 100 µM (inactive),> 100 µM (inactive),–,> 100 µM (inactive),> 100 µM (inactive),> 100 µM (inactive),–
CC1=NN(c2ccccc2)C(=O)C1/N=N/c1ccc(Br)c(C)c1 (stereo not drawn),> 100 µM (inactive),> 100 µM (inactive),–,> 100 µM (inactive),> 100 µM (inactive),> 100 µM (inactive),> 100 µM (inactive),> 100 µM (inactive),> 100 µM (inactive),> 100 µM (inactive),> 100 µM (inactive),> 100 µM (inactive),> 100 µM (inactive)
O=C1NC2C(CCO)CC=C[C@H]2c2cc3c(cc21)OCO3 (stereo partly drawn),> 100 µM (inactive),> 100 µM (inactive),> 100 µM (inactive),> 100 µM (inactive),> 100 µM (inactive),> 100 µM (inactive),> 100 µM (inactive),> 100 µM (inactive),> 100 µM (inactive),–,> 100 µM (inactive),> 100 µM (inactive),> 100 µM (inactive)
NC1=NC2=C(CCCC2)C(c2cccs2)S1 (stereo not drawn),> 100 µM (inactive),> 100 µM (inactive),–,> 100 µM (inactive),> 100 µM (inactive),> 100 µM (inactive),59.8 µM (inactive),> 100 µM (inactive),> 100 µM (inactive),86.5 µM (inactive),> 100 µM (inactive),> 100 µM (inactive),> 100 µM (inactive)
COc1cc(C)c(O)c(C(=O)O)c1,> 100 µM (inactive),> 100 µM (inactive),> 100 µM (inactive),> 100 µM (inactive),> 100 µM (inactive),> 100 µM (inactive),> 100 µM (inactive),–,> 100 µM (inactive),> 100 µM (inactive),> 100 µM (inactive),> 100 µM (inactive),> 100 µM (inactive)
Cc1cc(=O)n2c(cc3cccccc32)n1,> 100 µM (inactive),> 100 µM (inactive),> 100 µM (inactive),> 100 µM (inactive),> 100 µM (inactive),> 100 µM (inactive),> 100 µM (inactive),> 100 µM (inactive),–,> 100 µM (inactive),> 100 µM (inactive),> 100 µM (inactive),> 100 µM (inactive)
CC(C)(C)C1CCC2c3c([nH]c4ncccc34)C3C(=O)N(c4ccccc4)C(=O)C3C2C1 (stereo not drawn),99.3 µM (inactive),> 100 µM (inactive),> 100 µM (inactive),> 100 µM (inactive),> 100 µM (inactive),> 100 µM (inactive),> 100 µM (inactive),> 100 µM (inactive),> 100 µM (inactive),> 100 µM (inactive),> 100 µM (inactive),> 100 µM (inactive),24.6 µM (inactive)
Cc1ccc(NC(=O)CC/C(CC(=O)C(C)(C)C)=N/Nc2nnc(C)n2N)cc1C,> 100 µM (inactive),> 100 µM (inactive),> 100 µM (inactive),> 100 µM (inactive),> 100 µM (inactive),> 100 µM (inactive),> 100 µM (inactive),30.8 µM (inactive),> 100 µM (inactive),–,84.9 µM (inactive),> 100 µM (inactive),> 100 µM (inactive)
CC(C)(C)NC(=O)C12C3C4C1C1C2C3C41I (stereo not drawn),> 100 µM (inactive),> 100 µM (inactive),> 100 µM (inactive),–,> 100 µM (inactive),> 100 µM (inactive),–,–,> 100 µM (inactive),–,> 100 µM (inactive),> 100 µM (inactive),–
CSc1ccc(-c2cn3ccsc3n2)c(O)c1,> 89.9 µM (inactive),61.8 µM (inactive),20 µM (inactive),> 100 µM (inactive),46 µM (inactive),> 44.5 µM (inactive),36.7 µM (inactive),> 81.3 µM (inactive),30.3 µM (inactive),> 49.4 µM (inactive),> 56.5 µM (inactive),36.1 µM (inactive),35.6 µM (inactive)
O=C(NCCCN1CCN(CCCNC(=O)Nc2cc(Cl)ccc2Cl)CC1)Nc1cc(Cl)ccc1Cl,61.8 µM (inactive),> 100 µM (inactive),37 µM (inactive),> 100 µM (inactive),50.7 µM (inactive),45.5 µM (inactive),> 100 µM (inactive),–,79.3 µM (inactive),34 µM (inactive),> 100 µM (inactive),> 100 µM (inactive),15 µM (inactive)
CCOC(=O)c1ccc(NC(=O)SCCC(=O)O)cc1,56.4 µM (inactive),> 100 µM (inactive),64.3 µM (inactive),35.4 µM (inactive),> 100 µM (inactive),> 100 µM (inactive),> 100 µM (inactive),0.841 µM (active),> 100 µM (inactive),–,> 100 µM (inactive),> 100 µM (inactive),< 0.01 µM (active)
NC1=NCCC1(c1ccccc1)c1ccccn1 (stereo not drawn),> 100 µM (inactive),> 100 µM (inactive),–,> 100 µM (inactive),> 100 µM (inactive),> 100 µM (inactive),> 100 µM (inactive),> 100 µM (inactive),> 100 µM (inactive),> 100 µM (inactive),> 100 µM (inactive),> 100 µM (inactive),> 100 µM (inactive)
O=c1c(Br)cc2nc3ccccc3sc-2c1Br,19.5 µM (inactive),> 100 µM (inactive),61.7 µM (inactive),> 100 µM (inactive),> 80.7 µM (inactive),36.3 µM (inactive),16.9 µM (inactive),> 74.6 µM (inactive),> 100 µM (inactive),24 µM (inactive),> 100 µM (inactive),68.1 µM (inactive),> 100 µM (inactive)
Cc1cccc(NC2=NC(=O)C(CC(=O)Nc3ccc(Cl)cc3C)S2)c1 (stereo not drawn),> 100 µM (inactive),> 100 µM (inactive),> 100 µM (inactive),> 100 µM (inactive),–,> 100 µM (inactive),> 100 µM (inactive),> 100 µM (inactive),–,> 100 µM (inactive),> 100 µM (inactive),> 100 µM (inactive),> 100 µM (inactive)
CCC(O)CCCCCCCCCCCCCCC(=O)O (stereo not drawn),> 100 µM (inactive),> 100 µM (inactive),> 10 µM (inactive),> 100 µM (inactive),> 100 µM (inactive),> 100 µM (inactive),> 100 µM (inactive),> 100 µM (inactive),> 100 µM (inactive),> 100 µM (inactive),61.8 µM (inactive),> 100 µM (inactive),> 100 µM (inactive)
CC1=C(c2cc(C(=O)Nc3ccc(Cl)cc3)nc(S)n2)Sc2ccccc2N1,> 100 µM (inactive),> 100 µM (inactive),> 100 µM (inactive),> 100 µM (inactive),> 100 µM (inactive),> 100 µM (inactive),> 100 µM (inactive),> 100 µM (inactive),> 100 µM (inactive),> 100 µM (inactive),> 100 µM (inactive),> 100 µM (inactive),> 100 µM (inactive)
COc1ccc([C@@H]2C[C@@H]3C(=O)OC(=O)[C@@H]3c3c2c2ccccc2n3C)cc1,> 100 µM (inactive),> 100 µM (inactive),–,> 100 µM (inactive),–,> 100 µM (inactive),> 100 µM (inactive),> 100 µM (inactive),> 100 µM (inactive),> 100 µM (inactive),> 100 µM (inactive),> 100 µM (inactive),> 100 µM (inactive)
Nc1c(-c2ccc(Cl)cc2)[n+]([O-])c2ccccc2[n+]1[O-],> 100 µM (inactive),> 100 µM (inactive),> 100 µM (inactive),> 100 µM (inactive),62.2 µM (inactive),> 100 µM (inactive),67.3 µM (inactive),> 100 µM (inactive),–,69.3 µM (inactive),> 100 µM (inactive),> 100 µM (inactive),67.3 µM (inactive)
Cc1ccc(/C=C/C(=O)CCN(C)C)cc1,15.9 µM (inactive),16.5 µM (inactive),16.3 µM (inactive),20.8 µM (inactive),16.3 µM (inactive),16 µM (inactive),20.3 µM (inactive),–,18.9 µM (inactive),15.2 µM (inactive),4.62 µM (inactive),16.6 µM (inactive),20.1 µM (inactive)
COC(=O)C(C#N)=C1c2ccccc2Oc2ccccc21,43.4 µM (inactive),> 100 µM (inactive),> 100 µM (inactive),64.3 µM (inactive),–,92 µM (inactive),21.5 µM (inactive),> 100 µM (inactive),–,43.8 µM (inactive),> 100 µM (inactive),43.2 µM (inactive),42.2 µM (inactive)
